According to patent publication US20080090788A1, “Chemical Compounds” (priority 2005, published 2008):

Legend:
IkB-α = IkB-α phosphorylation and degradation by immunoblotting in LPS-stimulated U937 cells; format: cell-based, human; settings: 30 minutes after LPS; for effect on IkB-α phosphorylation and degradation: 1 hour pretreatment
Procedure: Western blotting was performed as previously described (Brimmell M, Burns J S, Munson P, et al. High level expression of differentially localized BAG-1 isoforms in some oestrogen receptor-positive human breast cancers. Br J Cancer 1999; 81: 1042-51). IkB-α and phospho-Ser32 specific IkB-α antibodies were from Cell Signaling Technology (Hitchin, UK). The PARP antibody (C2-10 clone) was from R&D Systems (Abingdon, UK).
To determine the kinetics of modulation of IkB-α by LPS, U937 cells were treated with LPS for up to 120 minutes and total IkB-α and phosphorylated IkB-αanalysed by immunoblotting. There was a rapid accumulation of phosphorylated IkB-α, accompanied by IkB-α degradation (FIG. 3a). To confirm that the enhanced NF-kB inhibitory activity of compounds 3a, 3e and 3f was due to increased inhibition of IKK, we pretreated cells with these compounds and then stimulated them with LPS. IkB-α was analysed at 30 minutes after the addition of LPS because it was possible to monitor both phosphorylation and degradation at this time. […] Therefore, the improved NF-kB inhibitory activity of compounds 3a, 3e and 3f is associated with effective inhibition of IkB-α phosphorylation.
(A) U937-kBluc cells were treated with LPS for the indicated times and expression of total IkB-α and phosphorylated IkB-α determined by immunoblotting. (B) U937-kBluc cells were pretreated with the indicated concentrations of compounds or left untreated. After 1 hour, cells were stimulated with LPS. Control cells were cultured in the absence of LPS. Cells were harvested after 30 minutes and the expression of total IkB-α and phosphorylated IkB-α determined by immunoblotting. The signals were quantified by digital image analysis and the fold increase in IkB-α phosphorylation and percent expression of total IkB-α relative to control cells is shown.

NF-kB = NF-kB luciferase reporter activity in LPS-stimulated U937-kBluc cells; format: cell-based, human; settings: for IC50: Homo sapiens, U937-kBluc cells, LPS 0.3 μg/ml, 6 hours, mean of duplicate determinations ±SD, read-out: IC50 for inhibition of LPS-induced NF-kB activity
Procedure: U937-kBluc cells were cultured in a 96 well plate (2×10^4 cells in 100 μl in each well) and stimulated with 0.3 μg/ml LPS (lipopolysaccaride; Sigma Aldrich). After 6 hours, cells were collected and luciferase activity determined using the luclite reagent (Perkin Elmer UK, Beaconsfield, UK) and a Packard TopCount (Perkin Elmer), as described by the manufacturer. To determine the effect of SFZ and analogues, various concentrations of each compound or an equivalent amount of DMSO as a solvent control were added 1 hour prior to addition of LPS. Each determination was made in triplicate. A cell line containing an NF-kB reporter construct was used to determine the effects of SFZ analogues on NF-kB activity. Cells were treated with LPS to induce NF-kB activity in the presence or absence of each compound, or DMSO as a solvent control, and luciferase activity analysed as a measure of NF-kB dependent transcription (FIG. 1). […] U937-kBluc cells were treated with LPS to activate NF-kB in the presence of increasing concentrations of SFZ, derivatives (3a-f), or DMSO as a solvent control. For each concentration of compound, the percentage inhibition of luciferase activity relative to cells treated with an equivalent amount of DMSO was calculated. (A) Representative dose response experiment (♦, 3a; ▪, SFZ). Each data point is the mean of triplicate samples (±SEM). (B) Detailed dose response assays were performed for compounds which gave >50% inhibition at 2 mM. The mean IC50 value (±SD) for inhibition of LPS-induced NF-kB activity is derived from 2 independent experiments, each performed in triplicate.

[1] = system: Hepatic stellate cells (HSC); assay: HSC apoptosis by acridine orange staining; format: cell-based, rat; settings: for degree of HSC apoptosis compared with SFZ 1 mM: 3a 0.150 mM, 3e 0.127 mM, 3f 0.089 mM (approximately 5-fold lower concentrations)
Procedure: To determine the effects of SFZ analogues on HSC survival, activated HSC were treated for 24 hrs with SFZ or analogues, and apoptotic HSC were visualised by staining with Acridine orange (1 μg/ml in 10 mM 4-(2-hydroxyethyl)-1-piperazineethanesulfonic acid (Hepes) buffer, pH7.4). The proportion of apoptotic cells in five random fields were counted in duplicate wells at x20 magnification using a fluorescein isothiocyanate filter. Apoptosis of HSC measured by acridine orange correlates closely with activation of caspase 3.
In addition to its role in malignant cells, NF-kB is required for survival of HSC, which play a key role in the pathogenesis of chronic liver disease. The ability of SFZ and analogues to induce HSC apoptosis was also compared. SFZ (1 mM) increased apoptosis ˜4.5-fold in cultured rat HSC (FIG. 5b). […] Therefore, the SFZ analogues with improved NF-kB-inhibiting activity are also relatively potent inducers of HSC apoptosis.
(A) CLL cells from three different patients were cultured in the presence of SFZ or compounds 3a and 3f (all at 0.5 mM), or DMSO as a solvent control. After 6 hours, the degree of PARP cleavage was determined as a measure of apoptosis. […] Note that compound 3f was not tested in cells from patient 3. (B) HSC were cultured in the presence of SFZ (1 mM), compounds 3a (0.150 mM), 3e (0.127 mM), 3f (0.089 mM), or DMSO as a solvent control. Analogues were used at the concentration that gave 50% inhibition of NF-kB transcriptional activity in U937 cells. After 20 hours, the proportion of apoptotic cells were visualised by acridine orange staining. Apoptotic cells were counted in five fields in duplicate for each concentration, in two independent experiments and results expressed as mean ±SEM,

| IC50 (NF-kB) [µM] | SMILES | effect on IkB-α phosphorylation and degradation (IkB-α; 200 μM) | effect on IkB-α phosphorylation and degradation (IkB-α; 500 μM) | improved inhibitory activity relative to SFZ (NF-kB; NF-kB inhibition, LPS treated U937 cells) [fold] | degree of HSC apoptosis compared with SFZ 1 mM [1] | effect on regulation of IkB-α (IkB-α; 1 mM) | increase in apoptosis of cultured HSC ([1]; SFZ 1 mM, cultured rat HSC) [fold] |
| --- | --- | --- | --- | --- | --- | --- | --- |
| 150 ± 27 | COc1ccc(CNS(=O)(=O)c2ccc(/N=N/c3ccc(O)c(C(=O)O)c3)cc2)cc1 [Compound 3a, 2-hydroxy-5-[4-(4-methoxy-benzylsulfamoyl)-phenylazo]-benzoic acid] | partially effective | prevented IkB-α phosphorylation and degradation | 7 | approximately the same degree of apoptosis |  |  |
| 127 ± 19 | Cc1cc(/N=N/c2ccc(S(=O)(=O)NCc3ccc(C(F)(F)F)cc3)cc2)cc(C(=O)O)c1O [Compound 3e, 2-hydroxy-3-methyl-5-[4-(4-trifluoromethyl-benzylsulfamoyl)-phenylazo]-benzoic acid] | partially effective | prevented IkB-α phosphorylation and degradation |  | approximately the same degree of apoptosis |  |  |
| 89 ± 26 | O=C(O)c1cc(/N=N/c2ccc(S(=O)(=O)NCc3ccc(C(F)(F)F)cc3)cc2)ccc1O [Compound 3f, 2-hydroxy-5-[4-(4-trifluoromethyl-benzylsulfamoyl)-phenylazo]-benzoic acid] | partially effective | prevented IkB-α phosphorylation and degradation |  | approximately the same degree of apoptosis |  |  |
| 1190 ± 96 | O=C(O)c1cc(/N=N/c2ccc(S(=O)(=O)Nc3ccccn3)cc2)ccc1O [SFZ, Sulfasalazine, reference compound] |  |  |  |  | only very modest effects | ~4.5 |
